This passage reports IC50 results from patent US12410208B2, “(2-acetamidyl)thio-beta-D-galactopyranoside derivatives” (Idorsia Pharmaceuticals Ltd, priority 2020, dated 2025).

Like-named read-outs stand apart in the source and are kept apart here.

Assay [1] concerns the target biotinylated human Gal-3 (hGal-3) (Homo sapiens, UniProt P17931). Nature of the assay: Competitive binding assay: biotinylated hGal-3 binding to microplate-adsorbed asialofetuin (ASF), spectrophotometric. As for the experimental part:
If not explicitly mentioned otherwise, the inhibition data refer to the binding of biotinylated human Gal-3 (hGal-3).
(§1) Biological Assay Evaluation of Compound Inhibitory Activity (IC50)
The inhibitory activity of compounds is determined in competitive binding assays.
Briefly, compounds are serially diluted in DMSO (working dilutions).
(§2) Plates are incubated for 3 hours at 4° C., then washed with cold assay buffer (3×50 uL), incubated for 1 hour with 25 μL/well of a streptavidin-peroxidase solution (diluted in assay buffer to 80 ng/mL) at 4° C., followed by further washing steps with assay buffer (3×50 uL). Finally, 25 μL/well of ABTS substrate is added.
(§3) The calculated IC50 values may fluctuate depending on the daily assay performance. Fluctuations of this kind are known to those skilled in the art. IC50 values from several measurements are given as mean values.

The next assay concerns the target human Gal-1 (hGal-1) (Homo sapiens, UniProt P09382). Nature of the assay: Competitive binding assay: biotinylated hGal-1 binding to microplate-adsorbed asialofetuin (ASF), spectrophotometric. The note with it: hGal-1 binding to asialofetuin; Table 15; R and S epimers of selected Examples also listed; read-out: IC50 (Galectin-1 inhibition). As for the experimental part: as §1
The inhibitory activity of compounds is determined in competitive binding assays. This spectrophotometric assay measures the binding of biotinylated human Gal-3 (hGal-3) or human Gal-1 (hGal-1), respectively, to a microplate-adsorbed glycoprotein, asialofetuin (ASF) (Proc Natl Acad Sci USA. 2013 Mar. 26; 110(13):5052-7.).
Briefly, compounds are serially diluted in DMSO (working dilutions). ASF-coated 384well plates are supplemented with 22.8 μL/well of biotinylated hGal-3 or hGal-1 in assay buffer (i.e. 300-1000 ng/mL biotinylated hGal-3 or hGal-1) to which 1.2 μL of compound working dilutions are added and mixed.
as §2, §3

Where [2] appears, read: Gal-3 inhibition, Table 5, read-out: IC50.
The mark [3] stands for this setting: Gal-3 inhibition, Table 4, read-out: IC50.
Setting [4] is: Table 10, hGal-3, read-out: IC50 (Gal-3 inhibition).
The mark [5] stands for this setting: Table 12, hGal-3, read-out: IC50 (Gal-3 inhibition).
The mark [6] stands for this setting: Gal-3 inhibition, Table 3, read-out: IC50.

Sequence of biotinylated human Gal-3 (hGal-3) (P17931 whole entry): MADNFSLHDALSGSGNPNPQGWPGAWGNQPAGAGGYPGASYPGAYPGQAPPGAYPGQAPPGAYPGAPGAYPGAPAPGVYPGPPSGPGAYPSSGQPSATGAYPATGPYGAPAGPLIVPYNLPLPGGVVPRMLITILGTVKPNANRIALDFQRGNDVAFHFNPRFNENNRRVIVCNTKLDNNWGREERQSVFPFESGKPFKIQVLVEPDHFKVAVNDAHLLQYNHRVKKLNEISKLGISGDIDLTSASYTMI
Sequence of human Gal-1 (hGal-1) (P09382 whole entry): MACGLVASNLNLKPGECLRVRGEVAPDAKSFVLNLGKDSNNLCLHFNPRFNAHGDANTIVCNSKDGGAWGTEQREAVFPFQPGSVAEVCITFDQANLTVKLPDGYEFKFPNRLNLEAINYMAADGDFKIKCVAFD

For orientation: IC50 means the midpoint of a concentration-inhibition curve. In the case of `CCN(C)C(=O)C(S[C@@H]1O[C@H](CO)[C@H](O)[C@H](n2cc(-c3cc(F)c(F)c(F)c3)nn2)[C@H]1O)C1(O)CCCCC1` (stereo partly drawn) [Example 2.39.203., 2-(((2S,3R,4S,5R,6R)-3,5-Dihydroxy-6-(hydroxymethyl)-4-(4-(3,4,5-trifluorophenyl)-1H-1,2,3-triazol-1-yl)tetrahydro-2H-pyran-2-yl)thio)-N-ethyl-2-(1-hydroxycyclohexyl)-N-methylacetamide], the IC50 in assay [1] (setting [2]) is 0.07 µM; at human Gal-1 (hGal-1), 0.17 µM.
On to `CN(CC(F)(F)F)C(=O)[C@H](S[C@@H]1O[C@H](CO)[C@H](O)[C@H](n2cc(-c3cc(F)c(F)c(F)c3)nn2)[C@H]1O)C1(O)CCCCC1` [Example 2.39.219R., (R)-2-(((2S,3R,4S,5R,6R)-3,5-Dihydroxy-6-(hydroxymethyl)-4-(4-(3,4,5-trifluorophenyl)-1H-1,2,3-triazol-1-yl)tetrahydro-2H-pyran-2-yl)thio)-2-(1-hydroxycyclohexyl)-N-methyl-N-(2,2,2-trifluoroethyl)acetamide], for which the IC50 in assay [1] (setting [2]) worked out at 0.27 µM; on human Gal-1 (hGal-1), 0.55 µM.
Turning to `CN1CCC(O)(C(S[C@@H]2O[C@H](CO)[C@H](O)[C@H](n3cc(-c4cc(F)c(F)c(F)c4)nn3)[C@H]2O)C(=O)N(C)Cc2ccccc2)CC1` (stereo partly drawn) [Example 2.40.207., N-Benzyl-2-(((2S,3R,4S,5R,6R)-3,5-dihydroxy-6-(hydroxymethyl)-4-(4-(3,4,5-trifluorophenyl)-1H-1,2,3-triazol-1-yl)tetrahydro-2H-pyran-2-yl)thio)-2-(4-hydroxy-1-methylpiperidin-4-yl)-N-methylacetamide], the half-inhibitory concentration (IC50) in assay [1] (setting [3]) is 0.09 µM; on human Gal-1 (hGal-1) it was 0.59 µM.
Regarding `CO[C@@H]1[C@@H](n2cc(-c3cc(F)c(F)c(F)c3)nn2)[C@@H](O)[C@@H](CO)O[C@H]1S[C@H](C(=O)N1CCC(F)(F)CC1)C1(O)CCC2(CCCC2)CC1` [Example 2.71.226S.I., (S)-1-(4,4-Difluoropiperidin-1-yl)-2-(((2S,3R,4S,5R,6R)-5-hydroxy-6-(hydroxymethyl)-3-methoxy-4-(4-(3,4,5-trifluorophenyl)-1H-1,2,3-triazol-1-yl)tetrahydro-2H-pyran-2-yl)thio)-2-(8-hydroxyspiro[4.5]decan-8-yl)ethan-1-one], the IC50 in assay [1] (Table 13, hGal-3, read-out: IC50 (Gal-3 inhibition)) was 0.1 µM; at human Gal-1 (hGal-1) it was 0.27 µM.
For the compound `CN(C)C(=O)[C@H](S[C@@H]1O[C@H](CO)[C@H](O)[C@H](n2cc(-c3cc(F)c(F)c(F)c3)nn2)[C@H]1O)C1(O)CCOCC1` [Example 2.41.201R., (R)-2-(((2S,3R,4S,5R,6R)-3,5-Dihydroxy-6-(hydroxymethyl)-4-(4-(3,4,5-trifluorophenyl)-1H-1,2,3-triazol-1-yl)tetrahydro-2H-pyran-2-yl)thio)-2-(4-hydroxytetrahydro-2H-pyran-4-yl)-N,N-dimethylacetamide], the IC50 in assay [1] (setting [3]) is 4.1 µM; at human Gal-1 (hGal-1), more than 100 µM.
As for `CCN(Cc1ccccc1)C(=O)C(S[C@@H]1O[C@H](CO)[C@H](O)[C@H](n2cc(-c3cc(F)c(F)c(F)c3)nn2)[C@H]1OC)C1(O)CCC(F)(F)CC1` (stereo partly shown) [Example 2.44.240.I.], the IC50 worked out at 0.04 µM in assay [1] (setting [4]) and 0.28 µM on human Gal-1 (hGal-1).
As to `CN(C(=O)C(S[C@@H]1O[C@H](CO)[C@H](O)[C@H](n2cc(-c3cc(F)c(F)c(F)c3)nn2)[C@H]1O)C1(O)CCCC1)C1CCC1` (stereo partly drawn) [Example 2.38.220., N-Cyclobutyl-2-(((2S,3R,4S,5R,6R)-3,5-dihydroxy-6-(hydroxymethyl)-4-(4-(3,4,5-trifluorophenyl)-1H-1,2,3-triazol-1-yl)tetrahydro-2H-pyran-2-yl)thio)-2-(1-hydroxycyclopentyl)-N-methylacetamide], the values for the IC50 (in assay [1] (setting [2]); on human Gal-1 (hGal-1)) were 0.03 µM and 0.02 µM, respectively.
For the compound `CCN(CC1CC(F)(F)C1)C(=O)C(S[C@@H]1O[C@H](CO)[C@H](O)[C@H](n2cc(-c3cc(F)c(F)c(F)c3)nn2)[C@H]1OC)C1(O)CCC(F)(F)CC1` (stereo partly shown) [Example 2.44.256.I.], the IC50 in assay [1] (setting [4]) turned out to be 0.05 µM; on human Gal-1 (hGal-1) it was 0.13 µM.
For the compound `CO[C@@H]1[C@@H](n2cc(-c3cc(F)c(F)c(F)c3)nn2)[C@@H](O)[C@@H](CO)O[C@H]1SC(C(=O)N1CCOCC1)C1(O)CCC(F)(F)CC1` (stereo partly drawn) [Example 2.44.244.I., 2-(4,4-Difluoro-1-hydroxycyclohexyl)-2-(((2S,3R,4S,5R,6R)-5-hydroxy-6-(hydroxymethyl)-3-methoxy-4-(4-(3,4,5-trifluorophenyl)-1H-1,2,3-triazol-1-yl)tetrahydro-2H-pyran-2-yl)thio)-1-morpholinoethan-1-one], the IC50 was 0.07 µM in assay [1] (setting [5]) and 0.1 µM at human Gal-1 (hGal-1).
With `CCN(C)C(=O)C(S[C@@H]1O[C@H](CO)[C@H](O)[C@H](n2cc(-c3cccc(F)c3)nn2)[C@H]1O)C1(O)CCOCC1` (stereo partly drawn) [Example 1.41.203., N-Ethyl-2-(((2S,3R,4S,5R,6R)-4-(4-(3-fluorophenyl)-1H-1,2,3-triazol-1-yl)-3,5-dihydroxy-6-(hydroxymethyl)tetrahydro-2H-pyran-2-yl)thio)-2-(4-hydroxytetrahydro-2H-pyran-4-yl)-N-methylacetamide], the IC50 was determined as 0.13 µM in assay [1] (Table 11, hGal-3, read-out: IC50 (Gal-3 inhibition)) and 0.16 µM at human Gal-1 (hGal-1).
Regarding `CCN(C)C(=O)C(S[C@@H]1O[C@H](CO)[C@H](O)[C@H](n2cc(-c3cc(F)c(F)c(F)c3)nn2)[C@H]1O)C(C)(C)O` (stereo partly drawn) [Example 2.31.203., 2-(((2S,3R,4S,5R,6R)-3,5-Dihydroxy-6-(hydroxymethyl)-4-(4-(3,4,5-trifluorophenyl)-1H-1,2,3-triazol-1-yl)tetrahydro-2H-pyran-2-yl)thio)-N-ethyl-3-hydroxy-N,3-dimethylbutanamide], the IC50 in assay [1] (setting [6]) came out at 0.21 µM; on human Gal-1 (hGal-1), 0.88 µM.
Consider “2-(4,4-Difluoro-1-hydroxycyclohexyl)-2-(((2S,3R,4S,5R,6R)-3,5-dihydroxy-6-(hydroxymethyl)-4-(4-(3,4,5-trifluorophenyl)-1H-1,2,3-triazol-1-yl)tetrahydro-2H-pyran-2-yl)thio)-N-ethyl-N-methylacetamide [Example 2.44.203.]”, for which the IC50 in assay [1] (setting [2]) is 0.06 µM; at human Gal-1 (hGal-1) it was 0.14 µM.
As for `CN(CC1CC1)C(=O)C(S[C@@H]1O[C@H](CO)[C@H](O)[C@H](n2cc(-c3cc(F)c(F)c(F)c3)nn2)[C@H]1O)C1(O)CCC1` (stereo partly drawn) [Example 2.34.218., N-(Cyclopropylmethyl)-2-(((2S,3R,4S,5R,6R)-3,5-dihydroxy-6-(hydroxymethyl)-4-(4-(3,4,5-trifluorophenyl)-1H-1,2,3-triazol-1-yl)tetrahydro-2H-pyran-2-yl)thio)-2-(1-hydroxycyclobutyl)-N-methylacetamide], the IC50 in assay [1] (setting [2]) was found to be 0.31 µM; on human Gal-1 (hGal-1) it was 0.22 µM.
Take `CCN(C)C(=O)[C@@H](S[C@@H]1O[C@H](CO)[C@H](O)[C@H](n2cc(-c3cc(F)c(F)c(F)c3)nn2)[C@H]1O)C(C)(C)O` [Example 2.31.203S., (S)-2-(((2S,3R,4S,5R,6R)-3,5-Dihydroxy-6-(hydroxymethyl)-4-(4-(3,4,5-trifluorophenyl)-1H-1,2,3-triazol-1-yl)tetrahydro-2H-pyran-2-yl)thio)-N-ethyl-3-hydroxy-N,3-dimethylbutanamide]: the IC50 in assay [1] (setting [6]) turned out to be 0.07 µM; at human Gal-1 (hGal-1), 0.24 µM.
Regarding `CO[C@@H]1[C@@H](n2cc(-c3cc(F)c(F)c(F)c3)nn2)[C@@H](O)[C@@H](CO)O[C@H]1SC(C(=O)N(C)C(C)C)C1(O)CCC(F)(F)CC1` (stereo partly drawn) [Example 2.44.242.I., 2-(4,4-Difluoro-1-hydroxycyclohexyl)-2-(((2S,3R,4S,5R,6R)-5-hydroxy-6-(hydroxymethyl)-3-methoxy-4-(4-(3,4,5-trifluorophenyl)-1H-1,2,3-triazol-1-yl)tetrahydro-2H-pyran-2-yl)thio)-N-isopropyl-N-methylacetamide], the IC50 was 0.08 µM in assay [1] (setting [5]) and 0.11 µM at human Gal-1 (hGal-1).
For the compound `CN(CC1CCCC1)C(=O)[C@H](S[C@@H]1O[C@H](CO)[C@H](O)[C@H](n2cc(-c3cc(F)c(F)c(F)c3)nn2)[C@H]1O)C1(O)CCOCC1` [Example 2.41.212., (R)-N-(cyclopentylmethyl)-2-(((2S,3R,4S,5R,6R)-3,5-dihydroxy-6-(hydroxymethyl)-4-(4-(3,4,5-trifluorophenyl)-1H-1,2,3-triazol-1-yl)tetrahydro-2H-pyran-2-yl)thio)-2-(4-hydroxytetrahydro-2H-pyran-4-yl)-N-methylacetamide], the results for the IC50 (in assay [1] (setting [3]); at human Gal-1 (hGal-1)) were 0.08 µM and 0.2 µM, respectively.
On to `O=C(C(S[C@@H]1O[C@H](CO)[C@H](O)[C@H](n2cc(-c3cc(F)c(F)c(F)c3)nn2)[C@H]1O)C1(O)CCC1)N1CCCCC1` (stereo partly drawn) [Example 2.34.208., 2-(((2S,3R,4S,5R,6R)-3,5-Dihydroxy-6-(hydroxymethyl)-4-(4-(3,4,5-trifluorophenyl)-1H-1,2,3-triazol-1-yl)tetrahydro-2H-pyran-2-yl)thio)-2-(1-hydroxycyclobutyl)-1-(piperidin-1-yl)ethan-1-one], for which the IC50 worked out at 0.38 µM in assay [1] (setting [2]) and 0.52 µM at human Gal-1 (hGal-1).
